# Experimental data published in patent publication US4767776A, “N-1H-tetrazol-5-yl-2-naphthalene carboxamides and their use as antiallergy and antiinflammatory agents” (Warner-Lambert Company, priority 1987, dated 1988).
# Where two headings read alike, the source gives them in different places.
# Tested on: human basophils
# Assay: Histamine release from human basophils (HHB)
# Type: cell-based
# Conditions: anti-IgE stimulus
# Protocol: HISTAMINE RELEASE FROM HUMAN BASOPHILS
# The blood samples are placed briefly on a rotary mixer. All glassware contacting the blood is siliconized. The blood is aliquoted into three plastic 50 ml centrifuge tubes and the volume is noted. Hespan (hydroxy ethyl starch), 0.5 ml per 1.0 ml of blood, is added. The tubes are inverted several times to mix and are left undisturbed at room temperature until a sharp separation is observed between the settled red cells and the leukocyte and platelet-rich plasma. This usually occurs within 35-45 minutes.
# The plasma fraction is pipetted off and placed into two clean plastic 50 ml centrifuge tubes. […] The platelets remain in the plasma and are discarded. The pelleted leukocytes are shaken gently to disrupt the cell button and washed twice as described:
# Wash 1. Five ml of HA buffer with 0.005M EDTA is added to the dispersed cells in each tube and gently vortexed. 25 ml of buffer is then added and gently vortexed. The samples are again centrifuged as described earlier. The supernatant is poured off, and the cell button in each tube is gently dispersed.
# Wash 2. Five ml of HA buffer with EDTA is added to each tube to resuspend the cells. Leukocytes are then pooled into one tube and the volume is brought up to 40 ml with HA buffer with EDTA and gently vortexed. […] The supernatant fluid is discarded and the cell button is dispersed. Sixteen ml of HACM buffer is added to the washed cells and gently vortexed. A sample is prepared for Hematology, where a total white blood cell and platelet count is done using a Coulter Counter.
# Aliquots (0.1 ml) of cells are added to assay tubes containing 0.4 ml of either 6% perchloric acid (for total histamine content), vehicle control (for spontaneous release), or drug. The tubes are incubated at room temperature for 8 minutes, and then placed in a 37° water bath for two more minutes. Buffer or challenge agents (at 37°) are added to the tube and they are incubated for an additional 45 minutes at 37°. The tubes are then spun at 2000 RPM (1200 g) for three minutes to pellet the cells and the supernatants are poured into assay cups.
# If the compound is in solution, distilled water is used to bring it up to 100 ml total volume. If the drug is not in solution, 0.2 ml 1N NaOH (or HCl) is added, and then distilled water is added to yield 100 ml total solution. Five ml of the stock solution is diluted (1:2) with 5 ml of two times concentrated HACM (Hepes Albumin Calcium Magnesium) buffer to yield the stock working concentration of 150 μM. […] Further dilutions are made with HACM buffer for 33, 10, 3.3, 1.0 μM, etc.
# Short ragweed and house dust extracts (Greer Laboratories, Inc.) are supplied as aqueous extracts in stock concentrations of 40,000 and 10,000 protein nitrogen units per milliliter (PNU/ml), respectively. Aqueous solutions of anti-IgE antisera (rabbit-raised antibody) are purchased from Dako via Accurate Chemicals. The tripeptide f-met-leu-phe (fmlp) from Vega Biochemicals is used. The aqueous solutions of ragweed, house dust, and anti-IgE are diluted 1:2 with two times concentrated HACM and then further diluted with HACM to yield final stock concentrations of […] for ragweed and house dust, and a 1:50 dilution for the anti-IgE antisera. […] The pH is adjusted to 7.4. Further dilutions for working solutions are made in HACM buffer. All stock and working solutions are stored at 4°. Working solutions comprise 1/6 of the final volume in the cell reaction, therefore, working solutions of challenge agents are made up six times the required final concentration (i.e., 600 μM f-met-leu-phe yields 100 μM final concentration in the cellular reaction).
# Samples are run in triplicate, using either 1.5 ml polypropylene-capped reaction tubes, or 5.0 ml plastic uncapped tubes.
# [1] = tested at 33 μM, read-out: % Inhibition of Histamine Release with Anti-IgE Stimulus
SMILES,inhibition at 33 µM [1],"inhibition at 33 µM (at highest dose tested, column head: tested at 33 μM, read-out: % Inhibition of Histamine Release with Anti-IgE Stimulus (at highest dose tested))"
"CC(C)Oc1c(C(=O)Nc2nnn[nH]2)ccc2ccccc12 [Example 23, 1-(1-Methylethoxy)-N-1H-tetrazol-5-yl-2-naphthalenecarboxamide]",16%,–
"COc1ccc2c(OC(C)C)c(C(=O)Nc3nnn[nH]3)ccc2c1 [Example 22, 6-Methoxy-1-(1-methylethoxy)-N-1H-tetrazol-5-yl-2-naphthalenecarboxamide]",71%,–
"CC(C)Oc1ccc2ccc(C(=O)Nc3nnn[nH]3)c(OC(C)C)c2c1 [Example 27, 1,7-bis(1-Methylethoxy)-N-1H-tetrazol-5-yl-2-naphthalenecarboxamide]",–,0%
"COc1ccc2ccc(C(=O)Nc3nn[nH]n3)c(OC)c2c1 [Example 24, 1,7-Dimethoxy-N-1H-tetrazol-5-yl-2-napthalenecarboxamide]",57%,–
"COc1cccc2c(OC(C)C)c(C(=O)Nc3nnn[nH]3)ccc12 [Example 25, 5-Methoxy-1-(1-methylethoxy)-N-1H-tetrazol-5-yl-2-naphthalenecarboxamide]",11%,–
"COc1ccc2ccc(C(=O)Nc3nnn[nH]3)c(OC(C)C)c2c1 [Example 26, 7-Methoxy-1-(1-methylethoxy)-N-1H-tetrazol-5-yl-2-naphthalenecarboxamide]",91%,–
